Assays:
[1] = target: Dipeptidyl peptidase 8 (Homo sapiens, UniProt Q6V1X1); assay: Inhibition of human recombinant DPP8 using H-Gly-Pro-AMC substrate after 10 mins by fluorescence assay
[2] = target: Dipeptidyl peptidase 9 (Homo sapiens, UniProt Q86TI2); assay: Inhibition of human recombinant DPP9 using H-Gly-Pro-AMC substrate after 10 mins by fluorescence assay
[3] = Elimination half life in rat liver microsomes; format: ADME; conditions: read-out: beta t1/2
[4] = target: Voltage-gated inwardly rectifying potassium channel KCNH2 (Homo sapiens, UniProt Q12809); assay: Inhibition of human ERG channel
Sequence of Voltage-gated inwardly rectifying potassium channel KCNH2 (Q12809 whole entry): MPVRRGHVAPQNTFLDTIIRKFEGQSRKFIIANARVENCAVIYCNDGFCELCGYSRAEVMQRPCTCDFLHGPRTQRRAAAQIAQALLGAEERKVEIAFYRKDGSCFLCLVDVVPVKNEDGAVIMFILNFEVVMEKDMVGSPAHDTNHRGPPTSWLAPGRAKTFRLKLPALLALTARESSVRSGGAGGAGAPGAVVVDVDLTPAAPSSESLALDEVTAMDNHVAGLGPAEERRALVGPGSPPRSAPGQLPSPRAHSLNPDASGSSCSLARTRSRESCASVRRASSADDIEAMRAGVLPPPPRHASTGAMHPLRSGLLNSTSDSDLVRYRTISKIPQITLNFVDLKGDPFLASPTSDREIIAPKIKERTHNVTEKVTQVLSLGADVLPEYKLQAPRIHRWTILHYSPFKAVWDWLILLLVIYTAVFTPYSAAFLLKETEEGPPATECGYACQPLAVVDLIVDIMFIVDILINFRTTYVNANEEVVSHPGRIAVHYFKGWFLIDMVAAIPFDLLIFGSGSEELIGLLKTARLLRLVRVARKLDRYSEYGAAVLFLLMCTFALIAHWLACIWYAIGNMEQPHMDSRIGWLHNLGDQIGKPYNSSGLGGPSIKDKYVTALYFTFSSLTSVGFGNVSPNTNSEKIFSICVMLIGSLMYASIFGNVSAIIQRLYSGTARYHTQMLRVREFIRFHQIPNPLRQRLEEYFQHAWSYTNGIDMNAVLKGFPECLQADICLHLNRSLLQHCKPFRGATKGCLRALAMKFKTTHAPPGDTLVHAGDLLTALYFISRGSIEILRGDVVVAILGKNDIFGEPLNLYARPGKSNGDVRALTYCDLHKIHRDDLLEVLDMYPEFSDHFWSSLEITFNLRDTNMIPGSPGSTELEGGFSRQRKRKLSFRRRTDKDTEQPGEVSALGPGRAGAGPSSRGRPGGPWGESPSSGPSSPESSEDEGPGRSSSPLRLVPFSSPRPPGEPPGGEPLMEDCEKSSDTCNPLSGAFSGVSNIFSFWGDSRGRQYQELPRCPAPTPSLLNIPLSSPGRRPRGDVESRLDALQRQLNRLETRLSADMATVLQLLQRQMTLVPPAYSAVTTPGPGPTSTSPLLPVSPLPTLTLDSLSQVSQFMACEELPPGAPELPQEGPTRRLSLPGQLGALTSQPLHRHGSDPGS

[5] = Metabolic stability in rat liver microsome assessed as turnover after 84 mins; format: ADME; conditions: liver microsomes, read-out: Drug metabolism
[6] = system: Mus musculus; assay: Anti-diabetic effect in ICR mouse assessed as plasma glucose lowering effect at 10 mg/kg, po treated 1 hr before 2.5 g/kg, po glucose load by Oral glucose tolerance test relative to control
[7] = system: Mus musculus; assay: Anti-diabetic effect in ICR mouse assessed as plasma glucose lowering effect at 10 mg/kg, po treated 8 hrs before 2.5 g/kg, po glucose load measured after 8 hrs by Oral glucose tolerance test relative to control
[8] = Elimination half life in male Sprague-Dawley rat at 5 mg/kg, iv; format: ADME, organism-based; conditions: in vivo, read-out: beta t1/2 (converted)
[9] = AUC (0 to infinity) in male Sprague-Dawley rat at 10 mg/kg, po; format: ADME, organism-based; set-up: dose 10 mg/kg, route oral, time infinity; conditions: in vivo
[10] = Cmax in male Sprague-Dawley rat at 10 mg/kg, po; format: ADME, organism-based; set-up: dose 10 mg/kg, route oral; conditions: in vivo
[11] = Cmax in male Sprague-Dawley rat at 5 mg/kg, iv; format: ADME, organism-based; set-up: dose 5 mg/kg, route intravenous; conditions: in vivo
[12] = Tmax in male Sprague-Dawley rat at 10 mg/kg, po; format: ADME, organism-based; conditions: in vivo
[13] = Elimination half life in male Sprague-Dawley rat at 10 mg/kg, po; format: ADME, organism-based; conditions: in vivo, read-out: beta t1/2 (converted)
[14] = AUC (0 to infinity) in male Sprague-Dawley rat at 5 mg/kg, iv; format: ADME, organism-based; set-up: dose 5 mg/kg, time infinity, route intravenous; conditions: in vivo
[15] = Plasma clearance in male Sprague-Dawley rat at 10 mg/kg, po; format: ADME, organism-based
[16] = Plasma clearance in male Sprague-Dawley rat at 5 mg/kg, iv; format: ADME, organism-based
[17] = system: Rattus norvegicus; assay: Volume of distribution at steady state in male Sprague-Dawley rat at 10 mg/kg, po; format: ADME, organism-based; conditions: in vivo
[18] = Volume of distribution at steady state in male Sprague-Dawley rat at 5 mg/kg, iv; format: ADME, organism-based; conditions: in vivo, read-out: Vdss
[19] = Oral bioavailability in male Sprague-Dawley rat at 10 mg/kg; format: ADME, organism-based; conditions: in vivo

Sequence of Dipeptidyl peptidase 9 (Q86TI2 whole entry): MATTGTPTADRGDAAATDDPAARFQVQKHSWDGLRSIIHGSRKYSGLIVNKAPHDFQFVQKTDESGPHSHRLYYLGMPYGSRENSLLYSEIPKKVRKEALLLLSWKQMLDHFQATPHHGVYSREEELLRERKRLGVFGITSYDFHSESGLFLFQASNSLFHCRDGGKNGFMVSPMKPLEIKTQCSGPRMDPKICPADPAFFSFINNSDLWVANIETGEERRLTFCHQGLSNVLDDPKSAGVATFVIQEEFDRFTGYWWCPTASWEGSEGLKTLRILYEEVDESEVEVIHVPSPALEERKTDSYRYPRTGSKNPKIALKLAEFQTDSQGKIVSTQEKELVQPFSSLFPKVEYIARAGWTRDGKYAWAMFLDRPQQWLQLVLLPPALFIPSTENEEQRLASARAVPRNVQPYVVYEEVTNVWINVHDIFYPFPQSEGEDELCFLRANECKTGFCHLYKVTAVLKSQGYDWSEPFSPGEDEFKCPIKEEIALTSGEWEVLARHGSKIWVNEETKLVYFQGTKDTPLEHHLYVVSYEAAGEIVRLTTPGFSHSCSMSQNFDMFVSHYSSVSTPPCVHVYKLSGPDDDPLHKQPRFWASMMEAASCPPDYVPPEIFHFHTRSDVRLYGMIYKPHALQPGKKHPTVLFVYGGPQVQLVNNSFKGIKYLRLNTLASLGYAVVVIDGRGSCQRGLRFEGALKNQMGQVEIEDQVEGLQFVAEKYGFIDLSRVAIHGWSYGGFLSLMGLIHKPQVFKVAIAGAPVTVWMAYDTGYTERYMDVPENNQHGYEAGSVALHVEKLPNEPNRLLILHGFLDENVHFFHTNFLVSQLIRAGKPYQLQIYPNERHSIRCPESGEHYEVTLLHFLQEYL
Sequence of Dipeptidyl peptidase 8 (Q6V1X1 whole entry): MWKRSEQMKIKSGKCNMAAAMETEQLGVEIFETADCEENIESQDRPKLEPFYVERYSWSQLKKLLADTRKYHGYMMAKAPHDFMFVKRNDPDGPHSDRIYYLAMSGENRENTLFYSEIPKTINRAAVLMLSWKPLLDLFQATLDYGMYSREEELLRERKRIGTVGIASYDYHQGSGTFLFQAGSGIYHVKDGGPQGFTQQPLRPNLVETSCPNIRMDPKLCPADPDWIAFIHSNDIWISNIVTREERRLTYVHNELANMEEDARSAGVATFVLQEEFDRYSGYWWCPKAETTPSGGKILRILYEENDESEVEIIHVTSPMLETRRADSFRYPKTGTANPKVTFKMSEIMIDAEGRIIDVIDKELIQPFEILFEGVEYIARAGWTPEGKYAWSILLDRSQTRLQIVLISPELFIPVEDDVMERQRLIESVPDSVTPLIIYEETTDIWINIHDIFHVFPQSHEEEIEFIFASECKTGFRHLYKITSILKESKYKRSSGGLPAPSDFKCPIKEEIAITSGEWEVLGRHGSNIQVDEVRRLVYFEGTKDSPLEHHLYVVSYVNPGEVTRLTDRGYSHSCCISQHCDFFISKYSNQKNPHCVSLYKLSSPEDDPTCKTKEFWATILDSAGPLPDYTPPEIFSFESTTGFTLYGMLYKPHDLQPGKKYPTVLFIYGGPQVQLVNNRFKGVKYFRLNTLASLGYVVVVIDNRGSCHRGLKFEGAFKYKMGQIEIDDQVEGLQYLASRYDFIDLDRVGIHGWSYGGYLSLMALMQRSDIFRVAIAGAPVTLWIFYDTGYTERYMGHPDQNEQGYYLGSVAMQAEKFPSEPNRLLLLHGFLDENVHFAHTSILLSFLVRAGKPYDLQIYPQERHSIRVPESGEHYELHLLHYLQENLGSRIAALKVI

Structure (SMILES)	IC50 [1] [µM]	IC50 [2] [µM]	half-life [3] [h]	inhibition (INH) [6] [%]	inhibition (INH) [7] [%]	also measured
N[C@@H](CC(=O)N1CC(=O)Nc2cc(F)c(F)cc2C1)[C@H]1CCc2cc(F)c(F)cc21	> 10	> 10	–	–	–	–
N[C@@H](CC(=O)N1CC(=O)Nc2cc(F)ccc2C1)[C@H]1CCc2cc(F)c(F)cc21	–	–	1.85	–	–	–
N[C@@H](CC(=O)N1CC(=O)Nc2ccccc2C1)[C@H]1CCc2cc(F)c(F)cc21	> 10	> 10	1.4	34	35	IC50 [4]: > 20 µM; metabolised at 1.4 h [5]: 50%
N[C@@H](CC(=O)N1CCn2c(nnc2C(F)(F)F)C1)[C@H]1CCc2cc(F)c(F)cc21	> 10	> 10	5.88	57	24	half-life [8]: 4.39 h; AUC(0-inf) [9]: 2850 ng·h/mL; Cmax [10]: 466 ng/mL; Cmax [11]: 1490 ng/mL; Tmax [12]: 0.55 h; half-life [13]: 5.11 h; AUC(0-inf) [14]: 2270 ng·h/mL; CL/F [15]: 59.1 mL/min/kg; clearance [16]: 37 mL/min/kg; Vdss [17]: 25.792 L/kg; Vd [18]: 14.2 L/kg; bioavailability [19]: 61%; IC50 [4]: > 20 µM
CN1C(=O)CN(C(=O)C[C@H](N)[C@H]2CCc3cc(F)c(F)cc32)Cc2ccc(F)cc21	> 10	> 10	–	48	30	–
CN1C(=O)CN(C(=O)C[C@H](N)[C@H]2CCc3cc(F)c(F)cc32)Cc2ccccc21	> 10	> 10	–	29	38	–
N[C@@H](CC(=O)N1CCn2c(nnc2C(F)(F)F)C1)Cc1cc(F)c(F)cc1F [SITAGLIPTIN]	–	–	–	40	24	–
